Reference: ChEMBL document CHEMBL5143679, “Discovery of 3, 6-disubstituted isobenzofuran-1(3H)-ones as novel inhibitors of monoamine oxidases” (Bioorg Med Chem Lett, 2022)
pIC50: −log10 of the molar value.

Target: T1, Amine oxidase [flavin-containing] A (Rattus norvegicus, UniProt P21396)
T1 sequence (P21396 whole entry): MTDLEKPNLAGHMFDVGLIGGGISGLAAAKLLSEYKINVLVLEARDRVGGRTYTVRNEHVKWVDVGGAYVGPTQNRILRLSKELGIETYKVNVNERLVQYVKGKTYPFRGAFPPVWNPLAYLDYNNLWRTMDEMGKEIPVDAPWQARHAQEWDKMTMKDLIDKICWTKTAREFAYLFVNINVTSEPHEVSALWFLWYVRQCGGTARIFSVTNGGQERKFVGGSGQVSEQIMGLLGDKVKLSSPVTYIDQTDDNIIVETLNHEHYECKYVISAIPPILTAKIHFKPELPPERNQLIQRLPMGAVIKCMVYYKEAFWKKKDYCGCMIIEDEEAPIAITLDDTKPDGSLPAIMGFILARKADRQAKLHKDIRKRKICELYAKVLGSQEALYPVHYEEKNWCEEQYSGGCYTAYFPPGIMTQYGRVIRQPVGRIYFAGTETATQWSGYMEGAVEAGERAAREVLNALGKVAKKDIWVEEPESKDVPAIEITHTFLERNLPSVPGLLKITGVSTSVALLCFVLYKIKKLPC
Assay: Inhibition of Sprague-Dawley rat MAO-A

## C[C@H](NCc1ccc(OCc2cccc(F)c2)cc1)C(N)=O [SAFINAMIDE]
  pIC50: 5.55
